Measurements: ChEMBL document CHEMBL1275578, “Genotypic versus phenotypic characterization, with respect to beta-lactam susceptibility, of Haemophilus influenzae isolates exhibiting decreased susceptibility to beta-lactam resistance markers” (2009)
Converted amounts (≈) assume the structure as drawn.

Experiments:
Assay type in all cases: functional
Haemophilus influenzae [1] = assay: Antimicrobial activity against beta-lactamase negative Haemophilus influenzae expressing […] gene by microdilution method
Haemophilus influenzae [2] = assay: Antimicrobial activity against beta-lactamase negative, ampicillin-resistant Haemophilus influenzae expressing […] mutant gene by microdilution method
Haemophilus influenzae [3] = assay: Antimicrobial activity against beta-lactamase positive, ampicillin-clavulanic acid resistant Haemophilus influenzae expressing […] mutant gene assessed as resistant isolates by microdilution method
Haemophilus influenzae [4] = assay: Antimicrobial activity against beta-lactamase positive Haemophilus influenzae expressing […] gene assessed as resistant isolates by microdilution method
Haemophilus influenzae [5] = assay: Antimicrobial activity against beta-lactamase positive Haemophilus influenzae expressing […] gene by microdilution method
Haemophilus influenzae [6] = assay: Antimicrobial activity against beta-lactamase negative Haemophilus influenzae expressing […] gene assessed as resistant isolates by microdilution method
Haemophilus influenzae [7] = assay: Antimicrobial activity against beta-lactamase negative, ampicillin-resistant Haemophilus influenzae expressing […] mutant gene assessed as resistant isolates by microdilution method
Haemophilus influenzae [8] = assay: Antimicrobial activity against beta-lactamase positive, ampicillin-clavulanic acid resistant Haemophilus influenzae expressing […] mutant gene by microdilution method
Haemophilus influenzae [9] = assay: Antimicrobial activity against beta-lactamase negative, ampicillin-resistant Haemophilus influenzae expressing […] mutant gene by microdilution method in presence of beta-lactamase inhibitor clavulanic acid
Haemophilus influenzae [10] = assay: Antimicrobial activity against beta-lactamase positive, ampicillin-clavulanic acid resistant Haemophilus influenzae expressing […] mutant gene by microdilution method in presence of beta-lactamase inhibitor clavulanic acid
Haemophilus influenzae [11] = assay: Antimicrobial activity against beta-lactamase negative, ampicillin-resistant Haemophilus influenzae expressing […] mutant gene assessed as resistant isolates by microdilution method in presence of beta-lactamase inhibitor clavulanic acid
Haemophilus influenzae [12] = assay: Antimicrobial activity against beta-lactamase positive Haemophilus influenzae expressing […] gene assessed as resistant isolates by microdilution method in presence of beta-lactamase inhibitor clavulanic acid
Haemophilus influenzae [13] = assay: Antimicrobial activity against beta-lactamase negative Haemophilus influenzae expressing […] gene by microdilution method in presence of beta-lactamase inhibitor clavulanic acid
Haemophilus influenzae [14] = assay: Antimicrobial activity against beta-lactamase positive, ampicillin-clavulanic acid resistant Haemophilus influenzae expressing […] mutant gene assessed as resistant isolates by microdilution method in presence of beta-lactamase inhibitor clavulanic acid
Haemophilus influenzae [15] = assay: Antimicrobial activity against beta-lactamase positive Haemophilus influenzae expressing […] gene by microdilution method in presence of beta-lactamase inhibitor clavulanic acid

SMILES: CC1(C)S[C@@H]2[C@H](NC(=O)[C@H](N)c3ccccc3)C(=O)N2[C@H]1C(=O)O [AMPICILLIN]
- MIC50 (Haemophilus influenzae [1]): 1 µg/mL (≈ 2.86 µM)
- MIC90 (Haemophilus influenzae [1]): 2 µg/mL (≈ 5.72 µM)
- MIC50 (Haemophilus influenzae [2]): 2 µg/mL (≈ 5.72 µM)
- MIC90 (Haemophilus influenzae [2]): 4 µg/mL (≈ 11.4 µM)
- Activity (Haemophilus influenzae [3]): 95.5%
- Activity (Haemophilus influenzae [4]): 100%
- MIC50 (Haemophilus influenzae [5]): ≥ 128 µg/mL
- MIC90 (Haemophilus influenzae [5]): ≥ 128 µg/mL
- Activity (Haemophilus influenzae [6]): 30%
- Activity (Haemophilus influenzae [7]): 98.3%

SMILES: C=CC1=C(C(=O)O)N2C(=O)[C@@H](NC(=O)/C(=N\O)c3csc(N)n3)[C@H]2SC1 [CEFDINIR]
- MIC50 (Haemophilus influenzae [8]): 2 µg/mL
- MIC90 (Haemophilus influenzae [8]): 4 µg/mL
- MIC50 (Haemophilus influenzae [1]): 1 µg/mL (≈ 2.53 µM)
- MIC90 (Haemophilus influenzae [1]): 4 µg/mL (≈ 10.1 µM)
- MIC50 (Haemophilus influenzae [2]): 2 µg/mL (≈ 5.06 µM)
- MIC90 (Haemophilus influenzae [2]): 8 µg/mL (≈ 20.2 µM)
- Activity (Haemophilus influenzae [3]): 52.3%
- Activity (Haemophilus influenzae [4]): 33.3%
- MIC50 (Haemophilus influenzae [5]): 0.5 µg/mL (≈ 1.26 µM)
- MIC90 (Haemophilus influenzae [5]): 4 µg/mL (≈ 10.1 µM)
- Activity (Haemophilus influenzae [6]): 40%
- Activity (Haemophilus influenzae [7]): 57%

SMILES: N[C@@H](C(=O)N[C@@H]1C(=O)N2C(C(=O)O)=C(Cl)CS[C@H]12)c1ccccc1 [CEFACLOR ANHYDROUS]
- MIC50 (Haemophilus influenzae [8]): 32 µg/mL
- MIC90 (Haemophilus influenzae [8]): 64 µg/mL
- MIC50 (Haemophilus influenzae [1]): 8 µg/mL (≈ 21.8 µM)
- MIC90 (Haemophilus influenzae [1]): 32 µg/mL (≈ 87 µM)
- MIC50 (Haemophilus influenzae [2]): 32 µg/mL (≈ 87 µM)
- Activity (Haemophilus influenzae [3]): 86.4%
- Activity (Haemophilus influenzae [4]): 76.2%
- MIC50 (Haemophilus influenzae [5]): 32 µg/mL (≈ 87 µM)
- MIC90 (Haemophilus influenzae [5]): ≥ 128 µg/mL
- Activity (Haemophilus influenzae [6]): 40%
- Activity (Haemophilus influenzae [7]): 70.2%

SMILES: CO/N=C(\C(=O)N[C@@H]1C(=O)N2C(C(=O)OCOC(=O)C(C)(C)C)=C(/C=C\c3scnc3C)CS[C@H]12)c1csc(N)n1 [CEFDITOREN PIVOXIL]
- MIC50 (Haemophilus influenzae [8]): 0.03 µg/mL
- MIC90 (Haemophilus influenzae [8]): 0.06 µg/mL
- MIC50 (Haemophilus influenzae [1]): 0.03 µg/mL (≈ 0.0483 µM)
- MIC90 (Haemophilus influenzae [1]): 0.06 µg/mL (≈ 0.0967 µM)
- MIC50 (Haemophilus influenzae [2]): 0.06 µg/mL (≈ 0.0967 µM)
- MIC90 (Haemophilus influenzae [2]): 0.06 µg/mL (≈ 0.0967 µM)
- MIC50 (Haemophilus influenzae [5]): 0.03 µg/mL (≈ 0.0483 µM)
- MIC90 (Haemophilus influenzae [5]): 0.06 µg/mL (≈ 0.0967 µM)

SMILES: CO/N=C(\C(=O)N[C@@H]1C(=O)N2C(C(=O)O)=C(COC(C)=O)CS[C@H]12)c1csc(N)n1 [CEFOTAXIME]
- MIC50 (Haemophilus influenzae [8]): 0.03 µg/mL
- MIC90 (Haemophilus influenzae [8]): 0.25 µg/mL
- MIC50 (Haemophilus influenzae [1]): 0.03 µg/mL (≈ 0.0659 µM)
- MIC90 (Haemophilus influenzae [1]): 0.25 µg/mL (≈ 0.549 µM)
- MIC50 (Haemophilus influenzae [2]): 0.06 µg/mL (≈ 0.132 µM)
- MIC90 (Haemophilus influenzae [2]): 0.5 µg/mL (≈ 1.1 µM)
- Activity (Haemophilus influenzae [3]): 0%
- Activity (Haemophilus influenzae [4]): 0%
- MIC50 (Haemophilus influenzae [5]): 0.03 µg/mL (≈ 0.0659 µM)
- MIC90 (Haemophilus influenzae [5]): 0.06 µg/mL (≈ 0.132 µM)
- Activity (Haemophilus influenzae [6]): 0%
- Activity (Haemophilus influenzae [7]): 0.8%

SMILES: CC1(C)S[C@@H]2[C@H](NC(=O)[C@H](N)c3ccc(O)cc3)C(=O)N2[C@H]1C(=O)O [AMOXICILLIN]
- MIC50 (Haemophilus influenzae [9]): 2 µg/mL
- MIC90 (Haemophilus influenzae [9]): 4 µg/mL
- MIC50 (Haemophilus influenzae [10]): 4 µg/mL
- MIC90 (Haemophilus influenzae [10]): 8 µg/mL
- Activity (Haemophilus influenzae [11]): 9.9%
- Activity (Haemophilus influenzae [12]): 4.8%
- MIC50 (Haemophilus influenzae [13]): 0.5 µg/mL
- MIC90 (Haemophilus influenzae [13]): 4 µg/mL
- Activity (Haemophilus influenzae [14]): 25%
- MIC50 (Haemophilus influenzae [15]): 2 µg/mL
- MIC90 (Haemophilus influenzae [15]): 4 µg/mL

SMILES: CO/N=C(\C(=O)N[C@@H]1C(=O)N2C(C(=O)O)=C(COC(N)=O)CS[C@H]12)c1ccco1 [CEFUROXIME]
- MIC50 (Haemophilus influenzae [8]): 4 µg/mL
- MIC90 (Haemophilus influenzae [8]): 16 µg/mL
- MIC50 (Haemophilus influenzae [1]): 1 µg/mL (≈ 2.36 µM)
- MIC90 (Haemophilus influenzae [1]): 8 µg/mL (≈ 18.9 µM)
- MIC50 (Haemophilus influenzae [2]): 4 µg/mL (≈ 9.43 µM)
- MIC90 (Haemophilus influenzae [2]): 16 µg/mL (≈ 37.7 µM)
- Activity (Haemophilus influenzae [3]): 45.4%
- Activity (Haemophilus influenzae [4]): 19%
- MIC50 (Haemophilus influenzae [5]): 2 µg/mL (≈ 4.71 µM)
- MIC90 (Haemophilus influenzae [5]): 8 µg/mL (≈ 18.9 µM)
- Activity (Haemophilus influenzae [6]): 20%
- Activity (Haemophilus influenzae [7]): 48.8%
